# Data: patent publication US20230414689A1, “COMPOSITION FOR PREVENTING, IMPROVING OR TREATING INFLAMMATORY BOWEL DISEASE, COMPRISING ISATIDIS FOLIUM EXTRACT” (MTHERA PHARMA CO., LTD, priority 2021, published 2023)
# Assays:
# [1] = test system: 2.5% DSS-induced inflammatory bowel disease animal model; experiment: Spleen weight and length (spleen ratio) in DSS-induced inflammatory bowel disease mice; format: in vivo, C57BL/6N male mice; conditions: 5-ASA 100 mg/kg oral, last day of administration
# Protocol: (§1) 6-week-old C57BL/6N male mice were purchased and pre-bred for one week, and then they were randomly divided into a total of 4 groups of 8 mice per group, and experiments were conducted as shown in Table 1 below.
# A representative symptom that can occur in relation to inflammatory bowel disease includes splenitis. As such, when the spleen becomes inflamed, the size of the spleen is increased by its nature (Nutrients 2019, 11(11), 2776), and in fact, it is known that the spleen becomes enlarged in the model of IBD induced after DSS treatment (Biol. Pharm. Bull. 43, 450-457 (2020)). Therefore, in order to evaluate the level of inflammation in the spleen of mice according to the administration of the Isatidis folium extract of the present invention, the mouse of Example 1 was sacrificed on the last day of each administration, and then the weight and length of the spleen of each group compared to those of the negative control group were measured, and the spleen ratio is shown.
# [2] = test system: 2.5% DSS-induced inflammatory bowel disease animal model; experiment: Body weight change in DSS-induced inflammatory bowel disease mice; format: in vivo, C57BL/6N male mice; conditions: 5-ASA 100 mg/kg oral for 10 days; 2.5% DSS in drinking water 8 days; body weight before DSS = 100%; negative control 84.50±2.78%, normal 104.89±1.09%
# Protocol: as §1
# Body weight loss is a representative symptom of inflammatory bowel disease (Scientific Reports volume 10, Article number: 3829 (2020)). The body weight of the mouse was measured once a day at the same time (10 am) using an electronic scale. The rate of change in body weight of each group was obtained by summing the body weight of 8 mice per group and then dividing by 8. The average body weight immediately before the start of administration of 2.5% DSS in drinking water was set as 100%, and the average body weight of each group was calculated every day to measure the rate of change in body weight. Significance was verified by performing a Mann-Whitney test for each group between the negative control group to which 2.5% DSS was administered in drinking water and the experimental group.
smiles,measurement,setting,value
"Nc1ccc(O)c(C(=O)O)c1 [5-ASA, 5-aminosalicylic acid]",decrease of weight and length of the spleen compared to negative control group,[1],60.6%
same,rate of change in body weight,[2],88.62±1.52%
